Results as given in US20210113441A1, “BIOSOLVENT MIXTURE REMOVAL OF INFECTION-CAUSED NAIL DISCOLORATION” (Vertec BioSolvents, Inc., priority 2019, published 2021).

Assay: Solubility studies in 50/50 alcohol/ethyl lactate blends
Details: for Final concentration dissolved (clear, free of particulates): ambient temperature about 20-25 C

Solubility (ethanol/ethyl lactate 50/50 blend (conclusion)): greater than 10 % w/w
Final concentration dissolved (clear, free of particulates) (ethyl alcohol/ethyl lactate blend 50/50 w/w): 10.31%
Solubility (isopropanol/ethyl lactate 50/50 blend (conclusion)): greater than 10 % w/w
Final concentration dissolved (clear, free of particulates) (isopropyl alcohol/ethyl lactate blend 50/50 w/w): 10.07%
Structure (SMILES): Clc1ccccc1C(c1ccccc1)(c1ccccc1)n1ccnc1 [clotrimazole, Clotrimazole]
